From ChEMBL document CHEMBL1201862, “PubChem BioAssay data set” (2004)
The source made the active and inactive calls.

What was measured:
Coagulation factor XII = molecular target: T1, Coagulation factor XII (Homo sapiens, UniProt P00748); type: functional;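 further: activated factor XIIa alpha cleaving a fluorogenic AMC peptide substrate; inhibitor potency from loss of enzyme activity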
T1 sequence (P00748 whole entry): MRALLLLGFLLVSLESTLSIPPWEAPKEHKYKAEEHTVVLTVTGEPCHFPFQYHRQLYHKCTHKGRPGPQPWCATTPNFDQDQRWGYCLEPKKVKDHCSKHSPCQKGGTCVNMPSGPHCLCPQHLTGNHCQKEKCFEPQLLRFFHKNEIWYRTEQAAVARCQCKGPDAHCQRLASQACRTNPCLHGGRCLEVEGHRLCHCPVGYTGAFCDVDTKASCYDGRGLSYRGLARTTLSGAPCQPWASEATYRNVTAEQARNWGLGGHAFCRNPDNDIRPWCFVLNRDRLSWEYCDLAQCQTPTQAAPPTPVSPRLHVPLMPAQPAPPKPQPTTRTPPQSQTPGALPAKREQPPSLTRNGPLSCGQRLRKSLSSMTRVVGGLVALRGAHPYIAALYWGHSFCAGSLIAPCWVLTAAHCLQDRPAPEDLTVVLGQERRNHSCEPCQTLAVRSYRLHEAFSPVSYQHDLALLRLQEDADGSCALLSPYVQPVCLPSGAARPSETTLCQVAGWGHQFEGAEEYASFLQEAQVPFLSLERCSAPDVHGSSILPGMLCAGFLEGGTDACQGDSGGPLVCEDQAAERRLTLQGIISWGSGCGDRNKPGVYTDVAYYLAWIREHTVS

HeLa = test: ATP-based viability loss in HeLa cells – cell-based, CellTiter-Glo luminescence, cherry-pick samples, cytotoxicity control for MITF activator project, dose response (AID 540259); type: functional; conditions: Homo sapiens
Cytochrome P450 3A4 [1] = molecular target: T2, Cytochrome P450 3A4 (Homo sapiens, UniProt P08684);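 further: CYP3A4 tested as one member of a cytochrome P450 panel screen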
Cytochrome P450 3A4 [2] = molecular target: T2, Cytochrome P450 3A4; remark: listed apart in the source
[3] = molecular target: T3, Long-chain-fatty-acid--AMP ligase FadD28 (Mycobacterium tuberculosis, UniProt P9WQ59); test: Fluorescence polarization aasay to screen for inhibitors that compete for the binding of FadD28 to a bisubstrate Measured in Biochemical System Using Plate Reader - 2147-01_Inhibitor_Dose_CherryPick_Activity.; type: functional, Mycobacterium tuberculosis H37Rv
T3 sequence (P9WQ59 whole entry): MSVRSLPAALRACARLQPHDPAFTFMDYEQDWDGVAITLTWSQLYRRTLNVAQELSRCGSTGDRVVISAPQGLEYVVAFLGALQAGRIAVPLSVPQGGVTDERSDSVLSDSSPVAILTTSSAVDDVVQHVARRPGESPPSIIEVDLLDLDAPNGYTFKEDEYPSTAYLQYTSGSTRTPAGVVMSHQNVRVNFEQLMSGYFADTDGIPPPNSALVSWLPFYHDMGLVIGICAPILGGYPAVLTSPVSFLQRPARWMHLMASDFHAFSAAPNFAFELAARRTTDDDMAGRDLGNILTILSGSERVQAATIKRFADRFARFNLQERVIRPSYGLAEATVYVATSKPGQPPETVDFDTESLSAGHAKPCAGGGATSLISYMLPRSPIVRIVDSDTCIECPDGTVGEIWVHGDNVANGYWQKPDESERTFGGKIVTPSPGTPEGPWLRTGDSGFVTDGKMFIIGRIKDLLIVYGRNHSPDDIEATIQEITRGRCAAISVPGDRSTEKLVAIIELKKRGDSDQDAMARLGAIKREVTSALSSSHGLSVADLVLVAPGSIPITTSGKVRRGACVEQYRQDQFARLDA

BJ [4] = test: growth inhibition of engineered Ras-driven BJ cells – cell-based, alamar blue fluorescence, cherrypicked samples, dose response (AID 2631); type: functional; conditions: Homo sapiens;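 further: confirmatory dose-response assay in RAS-dependent BJ fibroblasts engineered with TERT, LT and ST, with cytotoxicity read by fluorescence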
BJ [5] = test: BJ-TERT-LT-ST fibroblast viability loss – cell-based, RAS-independent, luminescence, dose response (AID 1935); type: functional; conditions: Homo sapiens;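 further: BJ fibroblasts immortalized with TERT plus LT and ST oncogenes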
BJ [6] = test: BJ-TERT fibroblast viability loss – cell-based, RAS-independent, luminescence, dose response (AID 1933); type: functional; conditions: Homo sapiens
BJ [7] = test: cells; type: functional, cell-based; conditions: Homo sapiens
[8] = Luminescence Cell-Based Dose Response HTS to Identify Inhibitors of 5'UTR Stem-Loop Driven Prion Protein mRNA Translation in H4 Neuroglioblastoma Cells. [Related pubchem assays: 1827 (Project Summary), 1813 (Primary HTS)]; type: functional
[9] = luciferase reporter signal suppression in cells – H4 neuroglioma cells, luminescence, dose response (AID 1990); type: functional, cell-based
[10] = DRD fibroblast viability loss – cell-based, non-viral oncogenic, luminescence, dose response (AID 1934); type: functional; conditions: Homo sapiens
[11] = alpha-synuclein stem-loop luciferase translation blockers – H4 neuroglioma cells, luminescence, confirmation (AID 1988); type: functional, cell-based
[12] = molecular target: T4, Endoribonuclease toxin MazF (Escherichia coli K-12, UniProt P0AE70); test: activation of MazEF endoribonuclease cleavage – biochemical, fluorescence, single-stranded RNA substrate, uHTS hits, dose response (AID 588481); type: functional
T4 sequence (P0AE70 whole entry): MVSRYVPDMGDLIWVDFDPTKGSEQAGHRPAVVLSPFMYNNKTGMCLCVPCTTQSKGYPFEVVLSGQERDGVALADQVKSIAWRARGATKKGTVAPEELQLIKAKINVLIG

[13] = molecular target: T4, Endoribonuclease toxin MazF; test: substrate-only fluorescence increase artefacts – biochemical, single-stranded RNase substrate, counter-screen for MazEF activator project, dose response (AID 588502); type: functional
[14] = molecular target: Heat shock protein HSP 90-alpha (Homo sapiens, UniProt P07900); type: functional, organism-based
[15] = molecular target: Ras and Rab interactor 1/Tyrosine-protein kinase ABL1 (Homo sapiens, UniProt P00519+Q13671); type: functional;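 further: biochemical TR-FRET dose-response test measuring inhibition of binding between Rin1 and Abl proteins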
[16] = fluconazole-exposed Candida albicans growth modulators – fluorescence, retest, confirmation (AID 2467); type: functional, cell-based
[17] = NIH-3T3 fibroblast cytotoxicity, dose response, cytotoxicity control, cell-based, fluorescence, Alamar Blue, secondary assay (AID 2327); type: functional;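 further: NIH-3T3 mouse fibroblasts cultured with fluconazole at 8 µg/mL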
H4 = test: Luminescence Cell-Based Dose Response HTS to Identify Activators of 5'UTR Stem-Loop Driven Prion Protein mRNA Translation in H4 Neuroglioblastoma Cells. [Related pubchem assays: 1829 (Project Summary), 1814 (Primary HTS)]; type: functional; conditions: Homo sapiens
[18] = Luminescence Cell-Based Dose Response HTS to Identify Activators of Luciferase Translation or Activity in H4 […] Cells. [Related pubchem assays: 1829 (Project Summary), 1814 (Primary HTS)]; type: functional

T2 sequence (P08684 whole entry): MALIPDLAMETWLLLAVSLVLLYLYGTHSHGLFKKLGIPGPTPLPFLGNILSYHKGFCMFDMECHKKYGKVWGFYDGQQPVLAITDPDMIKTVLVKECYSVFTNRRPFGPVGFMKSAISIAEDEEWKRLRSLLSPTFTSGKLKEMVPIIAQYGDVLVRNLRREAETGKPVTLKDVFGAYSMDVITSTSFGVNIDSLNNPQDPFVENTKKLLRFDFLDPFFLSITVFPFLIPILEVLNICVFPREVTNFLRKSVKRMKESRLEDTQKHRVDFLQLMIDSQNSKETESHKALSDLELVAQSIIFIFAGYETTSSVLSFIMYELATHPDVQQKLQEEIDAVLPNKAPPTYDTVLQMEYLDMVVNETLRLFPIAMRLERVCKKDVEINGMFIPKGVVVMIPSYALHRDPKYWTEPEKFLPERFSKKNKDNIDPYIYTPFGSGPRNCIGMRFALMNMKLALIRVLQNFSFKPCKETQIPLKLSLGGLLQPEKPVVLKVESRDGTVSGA
Ras and Rab interactor 1/Tyrosine-protein kinase ABL1, sequence (P00519 whole entry): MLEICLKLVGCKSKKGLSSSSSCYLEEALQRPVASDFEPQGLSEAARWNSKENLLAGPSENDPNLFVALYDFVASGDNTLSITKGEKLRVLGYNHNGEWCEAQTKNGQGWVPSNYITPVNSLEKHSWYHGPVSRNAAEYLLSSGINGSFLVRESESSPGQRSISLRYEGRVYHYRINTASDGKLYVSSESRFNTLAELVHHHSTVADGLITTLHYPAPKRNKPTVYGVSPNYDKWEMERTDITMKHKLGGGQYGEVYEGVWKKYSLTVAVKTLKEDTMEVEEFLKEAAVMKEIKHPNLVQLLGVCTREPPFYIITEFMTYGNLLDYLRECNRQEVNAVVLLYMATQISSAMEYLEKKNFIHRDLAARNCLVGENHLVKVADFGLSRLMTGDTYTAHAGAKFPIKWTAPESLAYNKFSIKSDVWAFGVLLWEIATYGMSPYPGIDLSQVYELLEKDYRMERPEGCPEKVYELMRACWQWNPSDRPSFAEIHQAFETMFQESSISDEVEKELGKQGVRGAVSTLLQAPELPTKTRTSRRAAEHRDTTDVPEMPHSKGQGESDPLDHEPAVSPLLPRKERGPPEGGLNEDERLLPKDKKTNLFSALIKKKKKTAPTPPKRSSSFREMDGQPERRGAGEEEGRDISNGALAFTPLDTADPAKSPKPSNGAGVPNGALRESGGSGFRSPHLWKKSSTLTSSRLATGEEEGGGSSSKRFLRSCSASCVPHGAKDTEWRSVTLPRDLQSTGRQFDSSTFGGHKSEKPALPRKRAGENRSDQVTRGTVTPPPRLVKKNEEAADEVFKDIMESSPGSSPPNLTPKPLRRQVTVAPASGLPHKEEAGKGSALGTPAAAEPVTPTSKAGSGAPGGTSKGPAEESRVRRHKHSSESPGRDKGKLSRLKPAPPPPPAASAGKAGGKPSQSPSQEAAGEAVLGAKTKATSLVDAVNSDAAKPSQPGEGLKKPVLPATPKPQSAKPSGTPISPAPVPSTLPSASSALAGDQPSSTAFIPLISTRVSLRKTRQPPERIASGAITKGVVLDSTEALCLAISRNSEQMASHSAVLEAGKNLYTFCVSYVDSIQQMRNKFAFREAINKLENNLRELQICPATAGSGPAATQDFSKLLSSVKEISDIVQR
Ras and Rab interactor 1/Tyrosine-protein kinase ABL1, sequence (Q13671 whole entry): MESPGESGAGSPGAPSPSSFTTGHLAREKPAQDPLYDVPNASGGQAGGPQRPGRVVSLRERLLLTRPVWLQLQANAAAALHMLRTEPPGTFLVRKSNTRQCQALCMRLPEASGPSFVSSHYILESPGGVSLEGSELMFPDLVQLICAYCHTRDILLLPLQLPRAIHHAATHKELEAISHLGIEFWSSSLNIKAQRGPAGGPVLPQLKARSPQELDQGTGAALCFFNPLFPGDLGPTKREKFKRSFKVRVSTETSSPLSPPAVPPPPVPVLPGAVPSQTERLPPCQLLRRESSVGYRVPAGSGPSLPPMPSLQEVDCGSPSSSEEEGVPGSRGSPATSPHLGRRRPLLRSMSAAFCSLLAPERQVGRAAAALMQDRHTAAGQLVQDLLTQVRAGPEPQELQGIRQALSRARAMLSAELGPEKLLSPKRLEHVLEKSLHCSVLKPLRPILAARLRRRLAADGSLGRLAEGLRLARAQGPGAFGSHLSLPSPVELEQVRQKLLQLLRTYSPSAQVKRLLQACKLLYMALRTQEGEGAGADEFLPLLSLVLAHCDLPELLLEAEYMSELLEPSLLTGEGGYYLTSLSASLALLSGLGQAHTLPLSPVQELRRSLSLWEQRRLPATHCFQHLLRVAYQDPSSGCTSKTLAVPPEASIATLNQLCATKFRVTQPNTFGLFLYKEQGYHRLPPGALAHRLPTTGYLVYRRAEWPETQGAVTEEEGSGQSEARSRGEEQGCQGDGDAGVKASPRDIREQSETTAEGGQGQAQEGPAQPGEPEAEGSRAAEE

Cc1onc(-c2c(F)cccc2Cl)c1-c1nnc(-c2ccc(C(F)(F)F)cc2)o1
IC50 (Coagulation factor XII): > 50 µM (inactive)

CC1CCCC(C)N1C(=O)c1cc(-c2ccc3c(c2)OCO3)on1 (stereo not drawn)
AC50 (HeLa): > 350 µM (inactive)

Nc1ccccc1C#Cc1ccccc1
AC50 (Cytochrome P450 3A4 [1]): 15.8 µM (inconclusive)
AC50 (HeLa): > 350 µM (inactive)
AC50 (Cytochrome P450 3A4 [2]): 15.8 µM (inconclusive)

COc1ccc(C2CC(=O)Oc3c(C(C)C)ccc(C)c32)cc1 (stereo not drawn)
AC50 [3]: > 100 µM (inactive)

COc1ccc(S(=O)(=O)N2CCOCC2)cc1NC(=O)CCNC(=O)c1ccc(Br)cc1
EC50 (BJ [4]): 6.09 µM (active)
EC50 (BJ [5]): 2.02 µM (active)
EC50 (BJ [6]): > 150 µM (not active)
EC50 (BJ [7]): 2.84 µM (inconclusive)
EC50 [8]: 5.78 µM (active)
EC50 [9]: 10.6 µM (active)
EC50 [10]: > 150 µM (not active)
EC50 [11]: 1.09 µM (active)

N#C/C(=C\c1ccc([N+](=O)[O-])cc1)c1nc(C2CC2)cs1
EC50 [12]: 10.4 µM (active)
EC50 [13]: > 99 µM (inactive)

COc1ccc2c(c1)OC[C@H]1[C@H]2N2C(=O)c3cc(Cl)ccc3NC(=O)[C@@]2(C)[C@H]1c1ccccc1
AC50 [14]: 0.976 µM (active)

O=C(Cc1ccc(NC(=O)C2CCN(C(=O)C3CCCC3)CC2)cc1)Nc1ccc(C(=O)N2CCOCC2)cc1
IC50 [15]: 1.54 µM (active)

O=C(N/N=C/c1ccc(O)c([N+](=O)[O-])c1)C1CC1(c1ccccc1)c1ccccc1 (stereo not drawn)
EC50 [16]: 1.04 µM (active)
AC50 [3]: 22.2 µM (active)
EC50 [17]: > 160 µM (inactive)

COc1ccc(C(=O)N/N=C\c2coc3ccc(C)cc3c2=O)cc1
EC50 [12]: > 99 µM (inactive)
EC50 [13]: > 99 µM (inactive)

CSc1nccc(N/N=C/c2ccccc2)n1
EC50 (H4): 2.55 µM (active)
EC50 [18]: 0.32 µM (active)
AC50 (HeLa): 100 µM (active)

CCOC(=O)c1c(/N=C/C2C(=O)NC(=O)NC2=O)sc2c1CCC2
EC50 [12]: > 99 µM (inactive)
EC50 [13]: > 99 µM (inactive)
